{"source": "patent US5407940A", "about": "“New ellipticine compounds” (priority 1992, dated 1995)", "key": {"[1]": {"system": "L1210", "experiment": "Cytotoxicity, line L1210 (Microculture Tetrazolium Assay)", "assay_type": "cell-based, murine", "settings": "for IC50: Mus musculus, L1210, 48 h, 2 days incubation, read-out: Cytotoxicity IC50, line L1210; for times more cytotoxic than adriamycin / times more cytotoxic than elliptinium acetate: L1210", "excerpt": "(§1) The cells are distributed on microplates and exposed to the cytotoxic compounds."}, "[2]": {"system": "S1/tMDR", "settings": "for resistance factor: S1/tMDR vs S1"}, "[3]": {"system": "S1/tMDR", "experiment": "cells", "settings": "Homo sapiens, 96 h, read-out: Cytotoxicity IC50, resistant S1/tMDR"}, "[4]": {"system": "P388/VCR-20", "settings": "for resistance factor: P388/VCR-20 vs P388"}, "[5]": {"system": "KB-A1", "experiment": "cells", "settings": "Homo sapiens, KB-A1, 96 h, read-out: Cytotoxicity IC50, resistant KB-A1"}, "[6]": {"system": "leukaemia P388", "experiment": "Anti-tumour activity against leukaemia P388 in vivo", "settings": "for Survivors on d60/total no. of mice / T/C: intraperitoneal, day 1"}, "[7]": {"system": "P388/VCR-20", "experiment": "cells", "settings": "Mus musculus, P388, 48 h, read-out: Cytotoxicity IC50, resistant P388/VCR-20"}, "[8]": {"system": "KB-3-1", "experiment": "Cytotoxicity, sensitive line KB-3-1", "assay_type": "cell-based", "settings": "Homo sapiens, KB 3-1, 96 h; 4 days incubation; read-out: Cytotoxicity IC50, sensitive KB-3-1", "excerpt": "as §1"}, "[9]": {"system": "P388", "experiment": "Cytotoxicity, sensitive line P388 (Microculture Tetrazolium Assay)", "assay_type": "cell-based, murine", "settings": "Mus musculus, P388, 48 h; 2 days incubation; read-out: Cytotoxicity IC50, sensitive P388", "excerpt": "as §1"}, "[10]": {"system": "KB-A1", "settings": "KB-A1 vs KB-3-1"}, "[11]": {"system": "S1", "experiment": "Cytotoxicity, sensitive line S1", "assay_type": "cell-based", "settings": "Homo sapiens, 96 h; 4 days incubation; read-out: Cytotoxicity IC50, sensitive S1", "excerpt": "as §1"}, "[12]": {"system": "colon 38", "experiment": "Anti-tumour activity against colon 38", "assay_type": "in vivo, female B6D2F1 mice", "settings": "for median T/C (tumour volume): d2 and d9, d25", "method": "Colon 38 (supplied by NCI, Frederick, USA) was inserted in the form of fragments by the subcutaneous route into female B6D2F1 mice. The compounds were administered by the i.v. route on d2 and d9 and the anti-tumour activity was determined on […] by measuring the tumour volume (T/C volume, %)."}}, "data": [{"smiles": "COc1ccc2[nH]c3c(C)c4ccnc(C(=O)NCCN(C)C)c4cc3c2c1", "note": "[Example 8, 1-(N,N-Dimethylaminoethylaminocarbonyl)-5-methyl-9-methoxy-6H-pyrido[4,3-b]carbazole]", "values": [{"measurement": "IC50", "setting": "[1]", "result": 487, "unit": "nM"}]}, {"smiles": "Cc1c2ccnc(C(=O)NCCN3CCCC3)c2cc2c3cc(O)ccc3n(C)c12", "note": "[Example 13, 1-[N-(2-Pyrrolidin-1-ylethyl)aminocarbonyl]-5,6-dimethyl-9-hydroxy-6H-pyrido[4,3-b]carbazole]", "values": [{"measurement": "IC50", "setting": "[1]", "result": 13.1, "unit": "nM"}]}, {"smiles": "COc1ccc2c(c1)c1cc3c(C(=O)NCCN(C)C)nccc3c(C)c1n2C", "note": "[Example 3, 1-(N,N-Dimethylaminoethylaminocarbonyl)-5,6-dimethyl-9-methoxy-6H-pyrido[4,3-b]carbazole]", "values": [{"measurement": "IC50", "setting": "[1]", "result": 574, "unit": "nM"}]}, {"smiles": "Cc1c2ccnc(C(=O)NCCCCN)c2cc2c3cc(O)ccc3n(C)c12", "note": "[Example 12, 1-[(4-Aminobutyl)aminocarbonyl]-5,6-dimethyl-9-hydroxy-6H-pyrido[4,3-b]carbazole]", "values": [{"measurement": "IC50", "setting": "[1]", "result": 450, "unit": "nM"}]}, {"smiles": "Cc1c2ccnc(C(=O)NCCCN(C)C)c2cc2c1[nH]c1ccc(O)cc12", "note": "[Example 7, 1-(N,N-Dimethylaminopropylaminocarbonyl)-5-methyl-9-hydroxy-6H-pyrido[4,3-b]carbazole]", "values": [{"measurement": "IC50", "setting": "[1]", "result": 41, "unit": "nM"}]}, {"smiles": "COc1ccc2[nH]c3c(C)c4ccnc(C(=O)NCCCN(C)C)c4cc3c2c1", "note": "[Example 5, 1-(N,N-Dimethylaminopropylaminocarbonyl) -5-methyl-9-methoxy-6H-pyrido[4,3-b]carbazole]", "values": [{"measurement": "IC50", "setting": "[1]", "result": 1500, "unit": "nM"}]}, {"smiles": "Cc1c2ccnc(C(=O)NCCN(C)C)c2cc2c1[nH]c1ccc(O)cc12", "note": "[Example 6, 1-(N,N-Dimethylaminoethylaminocarbonyl)-5-methyl-9-hydroxy-6H-pyrido[4,3-b]carbazole]", "values": [{"measurement": "resistance factor", "setting": "[2]", "result": "0,7"}, {"measurement": "sensitivity of resistant line S1/tMDR relative to corresponding sensitive line", "setting": "[2]; vs S1", "result": "more sensitive"}, {"measurement": "IC50", "setting": "[3]", "result": 29, "unit": "nM"}, {"measurement": "resistance factor", "setting": "[4]", "result": "0,5"}, {"measurement": "sensitivity of resistant line P388/VCR-20 relative to corresponding sensitive line", "setting": "[4]; vs P388", "result": "more sensitive"}, {"measurement": "IC50", "setting": "[5]", "result": 737, "unit": "nM"}, {"measurement": "Survivors on d60/total no. of mice", "setting": "[6]; 5 mg/kg", "result": "4/10"}, {"measurement": "T/C", "setting": "[6]; 5 mg/kg", "result": 280, "unit": "%"}, {"measurement": "Survivors on d60/total no. of mice", "setting": "[6]; 10 mg/kg", "result": "3/10"}, {"measurement": "T/C", "setting": "[6]; 10 mg/kg", "result": 233, "unit": "%"}, {"measurement": "Survivors on d60/total no. of mice", "setting": "[6]; 20 mg/kg", "result": "5/10"}, {"measurement": "T/C", "setting": "[6]; 20 mg/kg", "result": "> 600", "unit": "%"}, {"measurement": "Survivors on d60/total no. of mice", "setting": "[6]; 30 mg/kg", "result": "7/10"}, {"measurement": "T/C", "setting": "[6]; 30 mg/kg", "result": "> 600", "unit": "%"}, {"measurement": "long-term survivors over all doses employed", "setting": "[6]; all doses employed", "result": "all the doses employed giving long-term survivors"}, {"measurement": "IC50", "setting": "[7]", "result": 10, "unit": "nM"}, {"measurement": "times more cytotoxic than adriamycin", "setting": "[1]", "result": "approximately 9 times"}, {"measurement": "times more cytotoxic than elliptinium acetate", "setting": "[1]", "result": "~46", "unit": "times"}, {"measurement": "IC50", "setting": "[1]", "result": 3.1, "unit": "nM"}, {"measurement": "IC50", "setting": "[8]", "result": 20, "unit": "nM"}, {"measurement": "IC50", "setting": "[9]", "result": 19, "unit": "nM"}, {"measurement": "resistance factor", "setting": "[10]", "result": 37}, {"measurement": "IC50", "setting": "[11]", "result": 42, "unit": "nM"}, {"measurement": "median T/C (tumour volume)", "setting": "[12]; 10 mg/kg, i.v.", "result": 35, "unit": "%"}, {"measurement": "median T/C (tumour volume)", "setting": "[12]; 20 mg/kg, i.v.", "result": 22, "unit": "%"}, {"measurement": "median T/C (tumour volume)", "setting": "[12]; 30 mg/kg, i.v.", "result": 0, "unit": "%"}]}, {"smiles": "COc1ccc2c(c1)c1cc3c(C(=O)NCCCN(C)C)nccc3c(C)c1n2C", "note": "[Example 4, 1-(N,N-Dimethylaminopropylaminocarbonyl)-5,6-dimethyl-9-methoxy-6H-pyrido[4,3-b]carbazole]", "values": [{"measurement": "IC50", "setting": "[1]", "result": 875, "unit": "nM"}]}, {"smiles": "Cc1c2ccnc(C(=O)NCCCN(C)C)c2cc2c3cc(O)ccc3n(C)c12", "note": "[Example 2, 1-(N,N-Dimethylaminopropylaminocarbonyl)-5,6-dimethyl-9-hydroxy-6H-pyrido[4,3-b]carbazole]", "values": [{"measurement": "resistance factor", "setting": "[2]", "result": "0,7"}, {"measurement": "IC50", "setting": "[3]", "result": 38, "unit": "nM"}, {"measurement": "resistance factor", "setting": "[4]", "result": "3,4"}, {"measurement": "IC50", "setting": "[5]", "result": 1220, "unit": "nM"}, {"measurement": "Survivors on d60/total no. of mice", "setting": "[6]; 5 mg/kg", "result": "0/10"}, {"measurement": "T/C", "setting": "[6]; 5 mg/kg", "result": 177, "unit": "%"}, {"measurement": "Survivors on d60/total no. of mice", "setting": "[6]; 10 mg/kg", "result": "0/10"}, {"measurement": "T/C", "setting": "[6]; 10 mg/kg", "result": 190, "unit": "%"}, {"measurement": "Survivors on d60/total no. of mice", "setting": "[6]; 20 mg/kg", "result": "3/10"}, {"measurement": "T/C", "setting": "[6]; 20 mg/kg", "result": 250, "unit": "%"}, {"measurement": "Survivors on d60/total no. of mice", "setting": "[6]; 30 mg/kg", "result": "1/10"}, {"measurement": "T/C", "setting": "[6]; 30 mg/kg", "result": 204, "unit": "%"}, {"measurement": "Survivors on d60/total no. of mice", "setting": "[6]; 40 mg/kg", "result": "2/10"}, {"measurement": "T/C", "setting": "[6]; 40 mg/kg", "result": 219, "unit": "%"}, {"measurement": "Survivors on d60/total no. of mice", "setting": "[6]; 50 mg/kg", "result": "3/10"}, {"measurement": "T/C", "setting": "[6]; 50 mg/kg", "result": 222, "unit": "%"}, {"measurement": "Survivors on d60/total no. of mice", "setting": "[6]; 60 mg/kg", "result": "3/10"}, {"measurement": "T/C", "setting": "[6]; 60 mg/kg", "result": 248, "unit": "%"}, {"measurement": "IC50", "setting": "[7]", "result": 38, "unit": "nM"}, {"measurement": "times more cytotoxic than adriamycin", "setting": "[1]", "result": "approximately 9 times"}, {"measurement": "times more cytotoxic than elliptinium acetate", "setting": "[1]", "result": "~46", "unit": "times"}, {"measurement": "IC50", "setting": "[1]", "result": 4.3, "unit": "nM"}, {"measurement": "IC50", "setting": "[8]", "result": 19, "unit": "nM"}, {"measurement": "IC50", "setting": "[9]", "result": 11, "unit": "nM"}, {"measurement": "resistance factor", "setting": "[10]", "result": 64}, {"measurement": "IC50", "setting": "[11]", "result": 57, "unit": "nM"}, {"measurement": "T/C", "setting": "[12]; 20 mg/kg and above, i.v.", "result": 0, "unit": "%"}, {"measurement": "activity against that solid tumour (in words)", "setting": "[12]; 20 mg/kg and above, i.v.", "result": "very active"}, {"measurement": "median T/C (tumour volume)", "setting": "[12]; 20 mg/kg, i.v.", "result": 0, "unit": "%"}, {"measurement": "median T/C (tumour volume)", "setting": "[12]; 40 mg/kg, i.v.", "result": 0, "unit": "%"}, {"measurement": "median T/C (tumour volume)", "setting": "[12]; 60 mg/kg, i.v.", "result": 0, "unit": "%"}, {"measurement": "activity relative to 5-fluorouracyle", "setting": "[12]; 5-Fu at 80 mg/kg", "result": "as active as"}]}, {"smiles": "Cc1c2ccnc(C(=O)NCCCN3CCOCC3)c2cc2c3cc(O)ccc3n(C)c12", "note": "[Example 14, 1-[N-(3-Morpholinopropyl)aminocarbonyl]-5,6-dimethyl-9-hydroxy-6H-pyrido[4,3-b]carbazole]", "values": [{"measurement": "IC50", "setting": "[1]", "result": 10.4, "unit": "nM"}]}, {"smiles": "COc1ccc2[nH]c3c(C)c4ccnc(C(=O)NCCN5CCCC5)c4cc3c2c1", "note": "[Example 9, 1-[2-(Pyrrolidin-1-yl)ethylaminocarbonyl]-5-methyl-9-methoxy-6H-pyrido[4,3-b]carbazole]", "values": [{"measurement": "IC50", "setting": "[1]", "result": 1500, "unit": "nM"}]}, {"smiles": "Cc1c2ccnc(C(=O)NCCNCCO)c2cc2c3cc(O)ccc3n(C)c12", "note": "[Example 11, 1-{2-[(2-Hydroxyethyl)amino]ethylaminocarbonyl}-5,6-dimethyl-9-hydroxy-6H-pyrido [4,3-b]carbazole]", "values": [{"measurement": "IC50", "setting": "[1]", "result": 29.7, "unit": "nM"}]}, {"smiles": "O=c1[nH]cc(F)c(=O)[nH]1", "note": "[Example 5-Fu, 5-fluorouracyle, reference compound]", "values": [{"measurement": "median T/C (tumour volume)", "setting": "[12]; 80 mg/kg, i.v.", "result": 0, "unit": "%"}]}]}
